For assay [1], the system named is guinea pig tracheal chain preparations. As to the kind of experiment: effect on spontaneous tone of guinea pig tracheal chain preparations (β-stimulant direct relaxant effect on airway smooth muscle). Type of assay: cell-based. The text has this: (§1) Two in vitro test systems used for determining selective β-stimulant activity are: (1) effect on spontaneous tone of guinea pig tracheal chain preparations as a measure of β-stimulant (direct relaxant) effect on airway smooth muscle, and (2) effect on rate of spontaneously beating right atria of the guinea pig as a measure of β-stimulant effect on cardiac muscle.

A further assay concerns guinea pig right atria. The experiment in a line: effect on rate of spontaneously beating right atria of the guinea pig (β-stimulant effect on cardiac muscle). Type of assay: cell-based. To be noted: Cavia porcellus; in vitro, at a dose of 30.0 mcg/ml; read-out: increase in the rate of contraction of guinea pig right atria.
Description: as §1

SMILES strings stand for the structures. Values after ≈ are worked out from the molar mass of the structure shown.

As to `CC(C)NCC(O)c1ccc(O)c(O)c1` (stereo not drawn) [d,1-isoproterenol, reference compound], the absolute separation ratio in assay [1] (tracheal versus right atria activity, similar in vitro preparations) is 0.5. As for `CC(C)(C)NCC(O)c1ccc(O)c(CS(C)(=O)=O)n1` (stereo not drawn) [α-(t-butylaminomethyl)-5-hydroxy-6-methanesulfonylmethyl-2-pyridinemethanol], the activation at 30 µg/mL in the assay on guinea pig right atria turned out to be 13%. The EC50 in assay [1] (Cavia porcellus, in vitro, spontaneous tone, read-out: ED50, relaxes the spontaneous tone of guinea pig tracheal ring preparation) worked out at 8.8 ng/mL (≈ 0.0291 µM).

(Values after patent US3952101A, “α-Amino methyl-5-hydroxy-2-pyridinemethanols” (SmithKline Corporation, priority 1975, dated 1976).)
